# Results reported in the supplement of paper PMC4862054.
# How the values were obtained:
# Conditions in all cases: incubation time: 72 h
# HCC1143 [1] = test: normalised viability (% of control), CellTiter-Blue; higher = more viable cells (100 = DMSO, 0 = benzethonium chloride kill control)
# Description: (§1)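 DSRT, CellTiter-Blue viability, 72 h incubation. Signal is normalised to DMSO and benzethonium chloride controls. Value is the normalised response at dose 1.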
# MDA-MB-231 [2] = test: as above
# Description: as §1
# HCC1937 [3] = test: as above
# Description: as §1
# Hs578T [4] = test: as above
# Description: as §1
# CAL-148 [5] = test: as above
# Description: as §1
# BT-474 [6] = test: as above
# Description: as §1
# SK-BR-3 [7] = test: as above
# Description: as §1
# CAL-85-1 [8] = test: as above
# Description: as §1
# HDQ-P1 [9] = test: as above
# Description: as §1
# HCC1599 [10] = test: as above
# Description: as §1
# CAL-51 [11] = test: as above
# Description: as §1
# BT-549 [12] = test: as above
# Description: as §1
# MDA-MB-453 [13] = test: as above
# Description: as §1
# MDA-MB-436 [14] = test: as above
# Description: as §1
# DU-4475 [15] = test: as above
# Description: as §1
# MFM-223 [16] = test: as above
# Description: as §1
# CAL-120 [17] = test: as above
# Description: as §1
# MDA-MB-468 [18] = test: as above
# Description: as §1
# HCC1143 [19] = test: normalised response (% of control), CellTiter-Glo; higher = more viable cells (100 = DMSO, 0 = benzethonium chloride kill control)
# Method in brief: (§2)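 Each value is the plate-normalised signal at one concentration of the series. Breast cancer cell lines (20 µl suspension) were incubated 72 h in 384-well plates with compound at 5 concentrations in 10-fold steps over a compound-specific 10,000-fold range. CellTox Green and then CellTiter-Glo were read, and each plate was scaled to 0.1 % DMSO (100) and a positive kill control (0).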
# MDA-MB-231 [20] = test: as above
# Method in brief: as §2
# HCC1937 [21] = test: as above
# Method in brief: as §2
# MCF-10A = test: as above
# Method in brief: as §2
# Hs578T [22] = test: as above
# Method in brief: as §2
# CAL-148 [23] = test: as above
# Method in brief: as §2
# BT-474 [24] = test: as above
# Method in brief: as §2
# SK-BR-3 [25] = test: as above
# Method in brief: as §2
# CAL-85-1 [26] = test: as above
# Method in brief: as §2
# HDQ-P1 [27] = test: as above
# Method in brief: as §2
# HCC1599 [28] = test: as above
# Method in brief: as §2
# CAL-51 [29] = test: as above
# Method in brief: as §2
# BT-549 [30] = test: as above
# Method in brief: as §2
# MDA-MB-453 [31] = test: as above
# Method in brief: as §2
# MDA-MB-436 [32] = test: as above
# Method in brief: as §2
# DU-4475 [33] = test: as above
# Method in brief: as §2
# MFM-223 [34] = test: as above
# Method in brief: as §2
# CAL-120 [35] = test: as above
# Method in brief: as §2
# MDA-MB-468 [36] = test: as above
# Method in brief: as §2
# CAL-148 [37] = test: normalised viability (% of control), CellTiter-Blue; higher = more viable cells (about 100 = DMSO control)
# Description: (§3)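 DSRT, CellTiter-Blue viability, 72 h incubation. Signal is normalised to DMSO and benzethonium chloride controls. Value is the normalised response at dose 8.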
# CAL-85-1 [38] = test: as above
# Description: as §3
# HDQ-P1 [39] = test: as above
# Description: as §3
# CAL-51 [40] = test: as above
# Description: as §3
# MDA-MB-453 [41] = test: as above
# Description: as §3
# DU-4475 [42] = test: as above
# Description: as §3
Compound,normalised viability (HCC1143 [1]) [%],normalised viability (MDA-MB-231 [2]) [%],normalised viability (HCC1937 [3]) [%],normalised viability (Hs578T [4]) [%],normalised viability (CAL-148 [5]) [%],normalised viability (BT-474 [6]) [%],normalised viability (SK-BR-3 [7]) [%],normalised viability (CAL-85-1 [8]) [%],normalised viability (HDQ-P1 [9]) [%],normalised viability (HCC1599 [10]) [%],normalised viability (CAL-51 [11]) [%],normalised viability (BT-549 [12]) [%],normalised viability (MDA-MB-453 [13]) [%],normalised viability (MDA-MB-436 [14]) [%],normalised viability (DU-4475 [15]) [%],normalised viability (MFM-223 [16]) [%],normalised viability (CAL-120 [17]) [%],normalised viability (MDA-MB-468 [18]) [%],normalised response (HCC1143 [19]) [%],normalised response (MDA-MB-231 [20]) [%],also measured
COc1ccc(S(=O)(=O)Nc2cccnc2Nc2ccc(O)cc2)cc1 [ABT-751] (1 nM),95.5,95.8,90.3,105,96.9,100,87.2,88.4,114,90,109,110,90.5,85.8,96.5,92.1,84.7,102,96.1,104,normalised response (HCC1937 [21]): 96.5%; normalised response (MCF-10A): 91.5%; normalised response (Hs578T [22]): 101%; normalised response (CAL-148 [23]): 97.6%; normalised response (BT-474 [24]): 98.9%; normalised response (SK-BR-3 [25]): 84.4%; normalised response (CAL-85-1 [26]): 94.6%; normalised response (HDQ-P1 [27]): 96.8%; normalised response (HCC1599 [28]): 95.8%; normalised response (CAL-51 [29]): 108%; normalised response (BT-549 [30]): 109%; normalised response (MDA-MB-453 [31]): 95.2%; normalised response (MDA-MB-436 [32]): 93%; normalised response (DU-4475 [33]): 103%; normalised response (MFM-223 [34]): 93.9%; normalised response (CAL-120 [35]): 95.8%; normalised response (MDA-MB-468 [36]): 98.4%
Cc1cc(Nc2nc(N[C@@H](C)c3ncc(F)cn3)ncc2Cl)[nH]n1 [AZD1480] (0.1 nM),98.1,93.5,122,116,112,114,105,91.2,124,97,118,109,102,114,115,92.3,93.4,111,96.7,98.3,normalised response (HCC1937 [21]): 102%; normalised response (MCF-10A): 102%; normalised response (Hs578T [22]): 96.8%; normalised response (CAL-148 [23]): 95.5%; normalised response (BT-474 [24]): 98.7%; normalised response (SK-BR-3 [25]): 98.7%; normalised response (CAL-85-1 [26]): 102%; normalised response (HDQ-P1 [27]): 104%; normalised response (HCC1599 [28]): 78.9%; normalised response (CAL-51 [29]): 117%; normalised response (BT-549 [30]): 104%; normalised response (MDA-MB-453 [31]): 101%; normalised response (MDA-MB-436 [32]): 104%; normalised response (DU-4475 [33]): 97.2%; normalised response (MFM-223 [34]): 94.9%; normalised response (CAL-120 [35]): 100%; normalised response (MDA-MB-468 [36]): 94.8%
CNC(=O)c1ccccc1Sc1ccc2c(/C=C/c3ccccn3)n[nH]c2c1 [Axitinib] (1 nM),101,88.4,110,97.6,94.9,93.5,104,86.8,73.7,92.4,101,96.2,95.6,98,115,95.5,77.4,102,102,111,normalised response (HCC1937 [21]): 107%; normalised response (MCF-10A): 101%; normalised response (Hs578T [22]): 98.1%; normalised response (CAL-148 [23]): 103%; normalised response (BT-474 [24]): 98.6%; normalised response (SK-BR-3 [25]): 109%; normalised response (CAL-85-1 [26]): 99.8%; normalised response (HDQ-P1 [27]): 105%; normalised response (HCC1599 [28]): 103%; normalised response (CAL-51 [29]): 78.7%; normalised response (BT-549 [30]): 110%; normalised response (MDA-MB-453 [31]): 109%; normalised response (MDA-MB-436 [32]): 95.3%; normalised response (DU-4475 [33]): 104%; normalised response (MFM-223 [34]): 107%; normalised response (CAL-120 [35]): 104%; normalised response (MDA-MB-468 [36]): 105%
CC(O)(CS(=O)(=O)c1ccc(F)cc1)C(=O)Nc1ccc(C#N)c(C(F)(F)F)c1 (centres undefined) [Bicalutamide] (1 nM),102,111,77,112,105,113,86.9,92.2,100,93.8,110,107,97.8,99.1,112,94.8,96,110,105,104,normalised response (HCC1937 [21]): 101%; normalised response (MCF-10A): 107%; normalised response (Hs578T [22]): 99%; normalised response (CAL-148 [23]): 109%; normalised response (BT-474 [24]): 110%; normalised response (SK-BR-3 [25]): 106%; normalised response (CAL-85-1 [26]): 104%; normalised response (HDQ-P1 [27]): 102%; normalised response (HCC1599 [28]): 109%; normalised response (CAL-51 [29]): 114%; normalised response (BT-549 [30]): 111%; normalised response (MDA-MB-453 [31]): 91.7%; normalised response (MDA-MB-436 [32]): 104%; normalised response (DU-4475 [33]): 99%; normalised response (MFM-223 [34]): 107%; normalised response (CAL-120 [35]): 107%; normalised response (MDA-MB-468 [36]): 107%
CCN(CC)CCCC(C)Nc1ccnc2cc(Cl)ccc12 (centres undefined) [Chloroquine] (0.099 nM),99.2,112,89.7,101,97.1,100,91.9,87.6,112,96.9,90,107,107,111,111,102,85.9,108,–,–,–
CN(Cc1cnc2nc(N)nc(N)c2n1)c1ccc(C(=O)N[C@@H](CCC(=O)O)C(=O)O)cc1 [Methotrexate] (1 nM),95.6,93.5,84.6,130,110,101,88.7,95.9,114,93.6,106,92.2,101,109,114,99.9,90.5,93,–,–,–
COc1c2occc2cc2ccc(=O)oc12 [Methoxsalen] (1 nM),101,105,93.8,103,112,79.9,104,92.3,106,104,100,97.6,103,116,96.2,93.1,107,109,–,–,–
C=CCN(/C=C1/C(=O)O[C@H](COC)[C@@]2(C)C1=C(O)C(=O)C1=C2[C@H](OC(C)=O)C[C@]2(C)C(=O)CC[C@@H]12)CC=C [PX-866] (1 nM),99.8,97.6,83.9,98.6,114,102,96.3,97,107,104,112,105,101,94.8,118,87.4,97.7,96.6,–,–,–
CC[C@H](CO)Nc1nc(NCc2ccccc2)c2ncn(C(C)C)c2n1 [Roscovitine] (1 nM),95.5,110,81.3,96.3,87.1,91,92.9,82.8,83.1,101,101,105,104,114,103,96.5,83.7,93.7,–,–,–
CC[C@H](CO)Nc1nc(NCc2ccccc2)c2ncn(C(C)C)c2n1 [Roscovitine] (3000 nM),–,–,–,–,–,–,–,–,–,–,–,–,–,–,–,–,–,–,–,–,normalised viability (CAL-148 [37]): 80.4%; normalised viability (CAL-85-1 [38]): 82.6%; normalised viability (HDQ-P1 [39]): 91%; normalised viability (CAL-51 [40]): 107%; normalised viability (MDA-MB-453 [41]): 86.5%; normalised viability (DU-4475 [42]): 114%
